From PMC5471438, “Linaclotide activates guanylate cyclase‐C/cGMP/protein kinase‐II‐dependent trafficking of CFTR in the intestine” (Physiological Reports, 2017)
“Also recorded” adds a separate entry of the source. Where no end group is shown, it is not given here.

Assays:
CFTR [1] = experiment: Surface biotinylation of CFTR in T84 cells; format: cell-based, human; settings: linaclotide 3.27 μmol/L 30 min
CFTR [2] = experiment: Surface biotinylation of CFTR in C2BBe cells; format: cell-based, human; settings: linaclotide 3.27 μmol/L 30 min
rat colonic mucosa = settings: apical and basolateral membrane, ref Silos‐Santiago et al. 2013, Tchernychev et al. 2015; cited from earlier work
Text: (§1) While the increase in intracellular cGMP following ligand activation of GC‐C is well established, the efflux of cGMP from enterocytes is not well studied.

mouse colonic mucosa = settings: apical and basolateral membrane, ref Silos‐Santiago et al. 2013, Tchernychev et al. 2015; cited from earlier work
Text: as §1

Caco‐2 cell line = settings: human colonic Caco‐2 cell line; ref Castro et al. 2013; Silos‐Santiago et al. 2013; cited from earlier work
Text: as §1

T84 cells = settings: ref Forte et al. 1993; cited from earlier work
[3] = tested on: PKGII-deficient mice intestinal tissue; design: method as in Vaandrager et al. 2000; settings: normal and PKGII knockout mice; ref Vaandrager et al. 2000; cited from earlier work
CFTR [4] = experiment: Surface biotinylation of CFTR in cGKII knockdown C2BBe cells; format: cell-based, human; settings: dibutyryl cAMP 1 mmol/L, 30 min, vs PBS
human colonic mucosa = experiment: Transepithelial short circuit current (Isc) across human ascending colonic mucosa, Ussing chamber; settings: human ascending colon, bumetanide 100 μmol/L basolateral, linaclotide 30 nmol/L and 1000 nmol/L; mean ± SEM (n = 6)
[5] = tested on: rat proximal colonic mucosa; design: method as in 2 sources, one per row (each row's own in cited_ref): ref Tchernychev et al. 2015 ||| ref Vaandrager et al. 1997; settings: rat proximal colon; ref Vaandrager et al. 1997; cited from earlier work
[6] = tested on: rat proximal colonic mucosa; experiment: Transepithelial short circuit current (Isc) across rat proximal colonic mucosa, Ussing chamber; design: species or system rat (Sprague–Dawley)
cGKII = cGKII knockdown in C2BBe cells, Western blot; format: cell-based, human; settings: lentiviral cGKII shRNA
human intestine = tested on: human intestine; design: method as in Kuhn et al. 1994; settings: segments of human intestine including ascending colon; ref Kuhn et al. 1994; cited from earlier work
[7] = H7 50 μmol/L pretreatment 30 min
[8] = H8 70 μmol/L pretreatment 30 min

In the case of `CC1CNCCN1S(=O)(=O)c1cccc2cnccc12` (centres unmarked) [H7], the “effect of PKA inhibitor on linaclotide‐induced apical CFTR traffic” value (CFTR [1]; [7]) is reported as “reduced but did not abrogate linaclotide‐induced apical CFTR traffic; also recorded: reduce linaclotide‐induced apical trafficking of CFTR; also recorded: partially abrogated linaclotide‐stimulated traffic” and the “effect of PKA inhibitor on linaclotide‐induced apical CFTR traffic” value (CFTR [2]; [7]) is reported as “reduced but did not abrogate linaclotide‐induced apical CFTR traffic; also recorded: reduce linaclotide‐induced apical trafficking of CFTR; also recorded: partially abrogated linaclotide‐stimulated traffic”.
For “uroguanylin (NDDCELCVNVACTGCL; ends and bridges not checked; cysteine pairing not given here; UniProt Q16661 97-112, looked up) [natural hormone, GC‐C agonist]”, the cGMP efflux (rat colonic mucosa) is listed as “induce cGMP efflux”, the cGMP efflux (mouse colonic mucosa) is listed as “induce cGMP efflux” and the cGMP efflux (Caco‐2 cell line) is listed as “induce cGMP efflux”. For the same molecule, the “cGMP production via GC‐C activation” value (T84 cells) was “increase production of cGMP”.
In the case of `Nc1cc(-c2ccncc2)c[nH]c1=O` [amrinone], the “transepithelial ion current by PDE3 inhibitor” value [3] is given as “induced transepithelial ion current in tissues from normal and PKGII knockout mice”.
With `CCCC(=O)Nc1ncnc2c1ncn2[C@@H]1O[C@@H]2COP(=O)(O)O[C@H]2[C@H]1OC(=O)CCC` [Dibutyryl cAMP] the “surface CFTR in cGKII‐KD cells after cAMP analog” value (CFTR [4]) was “increased apical surface CFTR” and the “surface CFTR in cGKII‐KD cells after cAMP analog” value (CFTR [4]; listed as dibuturyl cAMP) was “able to recruit CFTR to the membrane”.
In the case of `CCCCNc1cc(C(=O)O)cc(S(N)(=O)=O)c1Oc1ccccc1` [bumetanide], the “effect of NKCC1 inhibitor on linaclotide‐evoked Isc” value (human colonic mucosa) is reported as “significantly attenuated linaclotide‐evoked Isc; also recorded: inhibits GC‐C mediated short circuit current across human colonic mucosa”.
For `Nc1nc2c(nc(Sc3ccc(Cl)cc3)n2[C@@H]2O[C@@H]3CO[P@@](=O)(S)O[C@H]3[C@H]2O)c(=O)[nH]1` [Rp‐8‐pCPT‐cGMPS], the “inhibition of GC‐C‐mediated transepithelial ion current by PKGII antagonists” value [5] is listed as “significant but incomplete inhibition”.
With `O=C(CNc1ccc2ccccc2c1)N/N=C/c1cc(Br)c(O)c(Br)c1O` [GlyH‐101] the “inhibition of linaclotide‐evoked Isc by CFTR inhibitor” value ([6]; GlyH‐101 0.1 mmol/L apical, 20 min after linaclotide 6 nmol/L or 100 nmol/L, mean ± SEM (n = 4)) was “significantly attenuated the linaclotide‐evoked Isc”, the “inhibition of linaclotide‐evoked Isc by CFTR inhibitor, low linaclotide” value ([6]; GlyH‐101 0.1 mmol/L, linaclotide 6 nmol/L) was “more profound when tissues were stimulated with lower concentrations of linaclotide; also recorded: significantly inhibited Isc induced by low concentration of linaclotide” and the “inhibition of linaclotide‐evoked Isc by CFTR inhibitor, high linaclotide” value ([6]; GlyH‐101 0.1 mmol/L, linaclotide 100 nmol/L) was “less profound”.
In the case of `CNCCNS(=O)(=O)c1cccc2cnccc12.Cl.Cl` [H8], the “effect of PKG inhibitor on linaclotide‐induced apical CFTR traffic” value (CFTR [1]; [8]) is given as “reduced linaclotide‐induced apical CFTR traffic more potently compared to the PKA inhibitor H7; also recorded: reduce linaclotide‐induced apical trafficking of CFTR”, the “inhibition of GC‐C‐mediated transepithelial ion current by PKGII antagonists” value [5] is given as “significant but incomplete inhibition” and the “effect of PKGII inhibitor on NKH477‐evoked Isc” value ([6]; rat proximal colon, H8 100 μmol/L 30 min preincubation, NKH477 20 μmol/L basolateral, mean ± SEM (n = 5)) is given as “no effect on NKH477‐evoked Isc; also recorded: no effect on PKA‐mediated short circuit current induced by NKH477”. The “effect of PKGII inhibitor on linaclotide‐induced Isc” value ([6]; rat proximal colon, H8 100 μmol/L 30 min preincubation, linaclotide 100 nmol/L apical, mean ± SEM (n = 5)) was “significantly decreased linaclotide‐induced Isc compared to vehicle‐treated tissues; also recorded: significant, it was not complete” and the “effect of PKG inhibitor on linaclotide‐induced apical CFTR traffic” value (CFTR [2]; [8]) was “reduced linaclotide‐induced apical CFTR traffic more potently compared to the PKA inhibitor H7; also recorded: reduce linaclotide‐induced apical trafficking of CFTR”.
For “cGKII shRNA: cGKII‐targeting shRNA (5′‐GGGCCTTAATAACCATTTAGT‐3′), lentiviral pLKO.1 (expressed from pLKO.1 lentiviral vector)”, the “downregulation of cGKII” value (cGKII) was “approximately 50 ± 3%”.
For “guanylin (PGTCEICAYAACTGC; ends and bridges not checked; cysteine pairing not given here; UniProt Q02747 101-115, looked up) [natural hormone, GC‐C agonist]”, the “electrogenic Cl− secretion” value (human intestine) is given as “increase electrogenic Cl^− secretion” and the “cGMP production via GC‐C activation” value (T84 cells) is given as “increase production of cGMP”.
With `C=C[C@@]1(C)CC(=O)[C@]2(O)[C@@]3(C)[C@@H](O)CCC(C)(C)[C@@H]3[C@H](OC(=O)CCN(C)C)[C@H](OC(C)=O)[C@@]2(C)O1.Cl` [NKH477] the “NKH477-induced transepithelial ion current” value ([6]; rat proximal colon, NKH477 20 μmol/L basolateral, mean ± SEM (n = 5)) was “robust transepithelial ion current”.
